Experimental data as given in patent US20230077155A1, “TETRAHYDROISOQUINOLINE COMPOUND AS POTASSIUM CHANNEL MODULATOR AND PREPARATION AND APPLICATION THEREOF” (Shanghai Zhimeng Biopharma, Inc., priority 2020, published 2023).

Key:
[1] = molecular target: T1, KCNQ2 potassium channel (CHO-KCNQ2 cells) (Homo sapiens, UniProt O43526); test: Potassium ion channel opener activity test (FDSS/μCELL detection, FluxOR thallium flux); type: cell-based; conditions: for Maximum agonist rate (%): highest test concentration 100 μM
T1 construct: expressed in transfected cells; host or cells: CHO cells stably expressing KCNQ2, kept under G418 selection
T1 sequence (O43526 whole entry): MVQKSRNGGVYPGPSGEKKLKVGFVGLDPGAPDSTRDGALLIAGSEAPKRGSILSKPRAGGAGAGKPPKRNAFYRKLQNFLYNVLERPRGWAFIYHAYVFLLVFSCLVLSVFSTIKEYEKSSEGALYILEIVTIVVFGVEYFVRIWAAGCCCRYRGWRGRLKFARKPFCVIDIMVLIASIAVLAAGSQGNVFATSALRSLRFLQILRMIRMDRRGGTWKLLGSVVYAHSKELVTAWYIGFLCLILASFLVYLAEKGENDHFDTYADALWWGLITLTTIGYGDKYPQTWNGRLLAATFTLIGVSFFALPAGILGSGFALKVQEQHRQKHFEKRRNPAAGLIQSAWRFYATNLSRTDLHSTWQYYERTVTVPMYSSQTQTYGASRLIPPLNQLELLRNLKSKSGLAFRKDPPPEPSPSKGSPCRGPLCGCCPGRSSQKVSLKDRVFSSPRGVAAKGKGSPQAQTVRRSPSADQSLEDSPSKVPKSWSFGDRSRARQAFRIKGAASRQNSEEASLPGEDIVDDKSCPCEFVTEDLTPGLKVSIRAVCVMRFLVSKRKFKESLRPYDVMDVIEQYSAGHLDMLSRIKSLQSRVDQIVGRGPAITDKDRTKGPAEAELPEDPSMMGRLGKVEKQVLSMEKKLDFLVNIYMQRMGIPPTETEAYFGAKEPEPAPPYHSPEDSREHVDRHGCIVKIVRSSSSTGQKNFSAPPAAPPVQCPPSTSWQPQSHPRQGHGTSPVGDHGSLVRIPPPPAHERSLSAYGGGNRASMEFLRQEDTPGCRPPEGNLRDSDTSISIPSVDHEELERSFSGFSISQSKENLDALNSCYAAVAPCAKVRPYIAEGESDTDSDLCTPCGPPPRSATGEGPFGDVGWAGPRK
Description: Potassium Ion Channel Opener Activity Test (FDSS/μCELL Detection)
1.1 Experimental procedure
Cell preparation: CHO-KCNQ2 cells were cultured in a 175 cm^2 culture flask, and when the cell density grew to 60-80%, the culture medium was removed, washed with 7 mL PBS (Phosphate Buffered Saline) once, then 3 mL 0.25% Trypsin was added to digest. After the digestion was completed, 7 mL culture medium (90% DMEM/F12+10% FBS±500 μg/mL G418) was added to neutralize, centrifugated for 3 minutes at 800 rpm. The supernatant was aspirated, then 5 mL culture medium was added to resuspend, and then the cells were counted.
Cell plating: according to the results of cell counting, the density was adjusted to 3×10^4 cells/well. After standing at room temperature for 30 minutes, the plate was placed in a 37° C. CO2 incubator and incubated overnight for 16-18 hours. The cell density reached about 80%.
Fluorescent dye incubation: the cell culture medium was discarded, 80 μL/well loading buffer was added, and incubated in the dark at room temperature for 60 minutes. Compound incubation: the loading buffer was discarded, 80 μL/well prepared compound solution was added, and incubated in the dark at room temperature for 20 minutes.
Fluorescence data collection: FDSS/μCELL instrument was used for real-time fluorescence signal recording with excitation wavelength at 480 nm and emission wavelength at 540 nm, recorded 1 time per second, and 20 μL/well stimulation buffer was started to add after recording for 10 seconds for baseline, and then continued to record until the end of 180 seconds.
The above buffer come from a commercially available kit named FluxOR potassium ion channel assay.
20 mM DMSO compound mother liquor was prepared, 10 μL of 20 mM compound mother liquor was took into 20 μL DMSO solution, serially diluted 3 times to 8 intermediate concentrations; then the intermediate concentrations of the compound was took out and added to the test buffer, diluted for 200 times to get the final concentration to be tested, 80 μL was took out and added to the test plate.
The highest test concentration was 100 μM, followed by […], 33.33, 11.11, 3.70, 1.23, 0.41, 0.137, 0.045 μM, total 8 concentrations. Each concentration set 3 duplicate wells.
This concentration of DMSO has no effect on the KCNQ2 potassium channel.
Experimental data was analyzed by Excel 2007 and GraphPad Prism 5.0 software, and the ratio of 180 seconds was calculated to calculate the agonism effect. The agonism effect of the compound was calculated by the following formula: […]
Reagent: FluxORTM Detection Kit (Invitrogen, Cat #F0017)
The experimental data in the report must meet the following criteria: Z′ Factor>0.5
2. Results: See Table 1, wherein the smaller the EC50 is, the higher the activity of the corresponding compound is.

[2] = Pharmacokinetics of mice, single intravenous and oral administration, plasma; type: in vivo; conditions: male ICR mice; for F: gavage 10 mg/kg vs intravenous; for AUC(0-inf) / AUC(0-t) / Cmax / Tmax / half-life: mouse, plasma
Description: Study on Pharmacokinetics of Mice
1) Research purposes: In order to obtain the pharmacokinetic characteristics and blood-brain barrier of the tested compound in male ICR mice
Six healthy male ICR mice (body weight range 18-22 g) were taken and divided into 2 groups and 3 mice/group. After fasting overnight (only oral administration group), […], blood was collected by jugular vein puncture at time points 0.083 (IV only), 0.25, 0.5, 1, 2, 4, 6 (PO only), 8 and 24 hours, and at least 0.3 mL of whole blood was collected to EDTA-K2 anticoagulant tube. Plasma was centrifuged (6000 rpm, 8 minutes, 4° C.) within half an hour and frozen at −20° C. for later use.
(§1) Experimental results: According to the blood drug concentration data obtained, the non-compartmental model of WinNonlin® 7.0 software (Pharsight, USA) was used to calculate the pharmacokinetic parameters after administration.

[3] = Brain-blood ratio study in mice after single oral administration; type: in vivo; conditions: mouse, brain and plasma, male ICR mice, single oral 10 mg/kg, read-out: Cerebral blood ratio; for Kp at 2 h: time point 2 h; for Kp at 4 h: time point 4 h
Description: Brain-blood ratio study: 6 healthy male ICR mice (body weight range 18-22 g) were taken and divided into 2 groups and 3 mice/group. After fasting overnight, the compound to be tested (10 mg/kg) was administrated orally respectively. Blood was taken through cardiac puncture at time points 2 and 4 hours, at least 0.5 mL of whole blood was collected to EDTA-K2 anticoagulant tube. Plasma was centrifuged (6000 rpm, 8 minutes, 4° C.) within half an hour and frozen at −20° C. for later use. At the same time, the brain tissue was collected, rinsed with normal saline, then sucked to dryness with absorbent paper, weighed, and frozen at −20° C. for later use.
The cerebral blood ratio is very important to nerve drugs, and it can be seen from Table 3 that the compounds of the present invention have excellent cerebral blood ratio, which will bring better drug efficacy and excellent safety. By comparing the cerebral blood ratios of compound A, compound 1, compound B and compound J, it can be seen that after the tert-butyl of compound A or compound B has been changed into […]

[4] = Pharmacokinetics of rats, single intravenous and oral administration, plasma; type: in vivo; conditions: male SD rats; for F: gavage 5 mg/kg vs intravenous 0.3 mg/kg; for AUC(0-inf) / AUC(0-t) / Cmax / Tmax / half-life: rat, plasma
Description: Study on Pharmacokinetics of Rats
1) Research purpose: To obtain the pharmacokinetic characteristics of the compounds to be tested in male SD rats.
Pharmacokinetic study: 6 healthy male SD rats (SPF grade) were divided into 2 groups and 3 rats/group. After fasting overnight (only oral administration group), compound A was administrated 0.3 mg/kg intravenously and 5 mg/kg orally, blood was collected by jugular vein puncture at time points 0.083 (IV only), 0.25, 0.5, 1, 2, 4, 6 (PO only), 8 and 24 hours, and at least 0.3 mL of whole blood was collected to EDTA-K2 anticoagulant tube. Plasma was centrifuged (6000 rmp, 8 minutes, 4° C.) within half an hour and frozen at −20° C. for later use.
as §1

[5] = intravenous 1 mg/kg (footnote *)

SMILES	EC50 [1] [µM]	Maximum agonist rate (%) [1] [%]	F [2] [%]	AUC(0-inf) ([2]; po, gavage 10 mg/kg) [ng·h/mL]	AUC(0-t) ([2]; po, gavage 10 mg/kg) [ng·h/mL]	Cmax ([2]; po, gavage 10 mg/kg) [ng/mL]	Tmax ([2]; po, gavage 10 mg/kg) [min]	half-life ([2]; po, gavage 10 mg/kg) [min]	Kp at 2 h [3]	Kp at 4 h [3]	F [4] [%]	AUC(0-inf) ([4]; po, gavage 5 mg/kg) [ng·h/mL]	AUC(0-t) ([4]; po, gavage 5 mg/kg) [ng·h/mL]	Cmax ([4]; po, gavage 5 mg/kg) [ng/mL]	Tmax ([4]; po, gavage 5 mg/kg) [min]	half-life ([4]; po, gavage 5 mg/kg) [min]	AUC(0-inf) ([4]; intravenous 0.3 mg/kg) [ng·h/mL]	AUC(0-t) ([4]; intravenous 0.3 mg/kg) [ng·h/mL]	Cmax ([4]; intravenous 0.3 mg/kg) [ng/mL]	Tmax ([4]; intravenous 0.3 mg/kg) [min]	other results
Cc1cc2c(c(C)c1NC(=O)CC1(C)CC1)CCN(c1ccc(F)cc1)C2 [Compound I]	0.44	38.3	24.6	539	528	192	19.8	232	6	5.8	30.11	855	822	221	30	375	166	164	345	4.8	AUC(0-inf) ([2]; intravenous 0.5 mg/kg): 108 ng·h/mL; AUC(0-t) ([2]; intravenous 0.5 mg/kg): 107 ng·h/mL; Cmax ([2]; intravenous 0.5 mg/kg): 299 ng/mL; Tmax ([2]; intravenous 0.5 mg/kg): 4.8 min; half-life ([2]; intravenous 0.5 mg/kg): 51.6 min; half-life ([4]; intravenous 0.3 mg/kg): 104 min
Cc1cc2c(c(C)c1NC(=O)CC(C)(C)C)CCN(c1ccc(F)cc1F)C2 [Compound B]	0.16	37.5	88.56	1430	1400	776	15	158	0.99	0.72	43.63	1080	1070	128	240	208	149	147	352	4.8	AUC(0-inf) [2, 5]: 161 ng·h/mL; AUC(0-t) [2, 5]: 158 ng·h/mL; Cmax [2, 5]: 405 ng/mL; Tmax [2, 5]: 4.8 min; half-life [2, 5]: 56.4 min; half-life ([4]; intravenous 0.3 mg/kg): 120 min
